US10676465B2, “GLP-1 receptor agonists and uses thereof” (Pfizer Inc., priority 2018, dated 2020)
Like-named read-outs stand apart in the source and are kept apart here.

What was measured:
human GLP-1R [1] = target: human GLP-1R (Homo sapiens, UniProt P43220, G168S); experiment: CHO GLP-1R Clone H6 - Assay 1 (HTRF cAMP agonist assay); format: cell-based; settings: for EC50: CHO GLP-1R Clone H6, cAMP HTRF, geometric mean; for Emax: CHO GLP-1R Clone H6, arithmetic mean, relative to saturating GLP-1 (1 μM)
human GLP-1R [2] = target: human GLP-1R (Homo sapiens (Human), UniProt P43220, L260F); experiment: CHO GLP-1R Clone C6 - Assay 2 (HTRF cAMP agonist assay, low receptor density); settings: for Emax: read-out: Assay 2 Emax (%), CHO GLP-1R Clone C6 (low receptor density), arithmetic mean, relative to saturating GLP-1 (1 μM)
[3] = read-out: Assay 2 EC50, CHO GLP-1R Clone C6 (low receptor density), cAMP HTRF, geometric mean
[4] = EC50 in Assay 2, CHO GLP-1R Clone C6, cAMP, geometric mean of replicates

human GLP-1R (Homo sapiens, UniProt P43220, G168S), sequence (P43220 24-463 G168S limits assumed): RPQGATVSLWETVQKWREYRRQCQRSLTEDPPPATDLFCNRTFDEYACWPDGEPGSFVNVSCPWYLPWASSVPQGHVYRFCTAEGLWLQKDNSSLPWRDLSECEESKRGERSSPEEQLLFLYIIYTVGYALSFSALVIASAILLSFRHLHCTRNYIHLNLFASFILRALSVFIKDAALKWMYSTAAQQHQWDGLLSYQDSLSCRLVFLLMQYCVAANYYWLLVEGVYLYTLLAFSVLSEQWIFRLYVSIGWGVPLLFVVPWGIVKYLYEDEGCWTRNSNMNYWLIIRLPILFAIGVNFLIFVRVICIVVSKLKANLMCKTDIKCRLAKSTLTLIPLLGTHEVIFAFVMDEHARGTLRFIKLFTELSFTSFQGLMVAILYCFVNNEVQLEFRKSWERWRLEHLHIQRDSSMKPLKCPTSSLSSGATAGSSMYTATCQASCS
human GLP-1R (Homo sapiens (Human), UniProt P43220, L260F), sequence (P43220 24-463 L260F): as the sequence (P43220 24-463 G168S limits assumed) above, with S145G, L237F counted along it

Row | EC50 (human GLP-1R [1]) [nM] | Emax (human GLP-1R [1]) [%] | EC50 (human GLP-1R [2]; [3]) [nM] | Emax (human GLP-1R [2]) [%] | EC50 (human GLP-1R [2]; [4]) [nM] | Structure (SMILES)
1 | 10 | 87 | 240 | 73 |  | COCCn1c(CN2CCC(c3cccc4c3OC(C)(c3ccc(F)cc3)O4)CC2)nc2ccc(C(=O)O)cc21 (stereo not shown) [Example 38, 2-({4-[2-(4-fluorophenyl)-2-methyl-1,3-benzodioxol-4-yl]piperidin-1-yl}methyl)-1-(2-methoxyethyl)-1H-benzimidazole-6-carboxylic acid]
2 | 130 | 85 | 2900 | 87 |  | COCCn1c(CN2CCC(c3cccc4c3OC(C)(c3ccccn3)O4)CC2)nc2ccc(C(=O)O)cc21 (stereo not shown) [Example 89, 1-(2-methoxyethyl)-2-({4-[2-methyl-2-(pyridin-2-yl)-1,3-benzodioxol-4-yl]piperidin-1-yl}methyl)-1H-benzimidazole-6-carboxylic acid]
3 | 760 | 85 |  |  |  | COCCn1c(CN2CCC(c3cccc4c3OC(C)(c3cccc(C)n3)O4)CC2)nc2ccc(C(=O)O)cc21 (stereo not shown) [Example 36, 1-(2-methoxyethyl)-2-({4-[2-methyl-2-(6-methylpyridin-2-yl)-1,3-benzodioxol-4-yl]piperidin-1-yl}methyl)-1H-benzimidazole-6-carboxylic acid]
4 | 600 | 86 |  |  |  | COCCn1c(CN2CCC(c3cccc4c3OC(CO)(c3ccccc3)O4)CC2)nc2ccc(C(=O)O)cc21 (stereo not shown) [Example 102, 2-({4-[2-(hydroxymethyl)-2-phenyl-1,3-benzodioxol-4-yl]piperidin-1-yl}methyl)-1-(2-methoxyethyl)-1H-benzimidazole-6-carboxylic acid]
5 | 480 | 87 |  |  |  | COCCn1c(CN2CCC(c3cccc4c3OC(C)(c3cccc(C(F)(F)F)c3)O4)CC2)nc2ccc(C(=O)O)cc21 (stereo not shown) [Example 28, 1-(2-methoxyethyl)-2-[(4-{2-methyl-2-[3-(trifluoromethyl)phenyl]-1,3-benzodioxol-4-yl}piperidin-1-yl)methyl]-1H-benzimidazole-6-carboxylic acid]
6 | 230 | 80 |  |  |  | COCCn1c(CN2CCC(c3cccc4c3OC(C)(c3cccc(C)c3)O4)CC2)nc2ccc(C(=O)O)cc21 (stereo not shown) [Example 85, 1-(2-methoxyethyl)-2-({4-[2-methyl-2-(3-methylphenyl)-1,3-benzodioxol-4-yl]piperidin-1-yl}methyl)-1H-benzimidazole-6-carboxylic acid]
7 | 570 | 89 |  |  |  | COCCn1c(CN2CCC(c3cccc4c3OC(C)(c3cccc(C#N)c3)O4)CC2)nc2ccc(C(=O)O)cc21 (stereo not shown) [Example 87, 2-({4-[2-(3-cyanophenyl)-2-methyl-1,3-benzodioxol-4-yl]piperidin-1-yl}methyl)-1-(2-methoxyethyl)-1H-benzimidazole-6-carboxylic acid]
8 |  |  | 7.6 | 99 |  | C[C@]1(c2ccc(Cl)cc2F)Oc2cccc(C3CCN(Cc4nc5ccc(C(=O)O)c(F)c5n4C[C@@H]4CCO4)CC3)c2O1 [Example 100, 2-({4-[(2S)-2-(4-chloro-2-fluorophenyl)-2-methyl-1,3-benzodioxol-4-yl]piperidin-1-yl}methyl)-7-fluoro-1[(2S)-oxetan-2-ylmethyl]-1H-benzimidazole-6-carboxylic acid]
9 |  | 77 |  |  |  | CC1(c2ccc(Cl)cn2)Oc2cccc(C3CCN(Cc4nc5ccc(C(=O)O)cc5n4C[C@@H]4CCO4)CC3)c2O1 (stereo partly drawn) [Example 95, 2-({4-[2-(5-chloropyridin-2-yl)-2-methyl-1,3-benzodioxol-4-yl]piperidin-1-yl}methyl)-1-[(2S)-oxetan-2-ylmethyl]-1H-benzimidazole-6-carboxylic acid]
10 | 290 | 78 |  |  |  | COCCn1c(CN2CCC(c3cccc4c3OC(C)(c3cccnc3)O4)CC2)nc2ccc(C(=O)O)cc21 (stereo not shown) [Example 11, 1-(2-Methoxyethyl)-2-({4-[2-methyl-2-(pyridin-3-yl)-1,3-benzodioxol-4-yl]piperidin-1-yl}methyl)-1H-benzimidazole-6-carboxylic Acid]
11 | 200 | 83 |  |  |  | COCCn1c(CN2CCC(c3cccc4c3OC(C)(c3cccc(OC)c3)O4)CC2)nc2ccc(C(=O)O)cc21 (stereo not shown) [Example 39, 1-(2-methoxyethyl)-2-({4-[2-(3-methoxyphenyl)-2-methyl-1,3-benzodioxol-4-yl]piperidin-1-yl}methyl)-1H-benzimidazole-6-carboxylic acid]
12 |  |  | 19 | 74 |  | O=C(O)c1ccc2nc(CN3CCC(c4cccc5c4O[C@@H](c4ccc(Cl)cc4F)O5)CC3)n(C[C@@H]3CCO3)c2c1F [Example 101, 2-({4-[(2S)-2-(4-chloro-2-fluorophenyl)-1,3-benzodioxol-4-yl]piperidin-1-yl}methyl)-7-fluoro-1-[(2S)-oxetan-2-ylmethyl]-1H-benzimidazole-6-carboxylic acid]
13 |  |  |  |  | 25 | O=C(O)c1ccc2nc(CN3CCC(c4cccc5c4O[C@@H](c4ccc(Cl)cc4F)O5)CC3)n(C[C@@H]3CCO3)c2c1 [5, free acid, 2-({4-[(2S)-2-(4-Chloro-2-fluorophenyl)-1,3-benzodioxol-4-yl]piperidin-1-yl}methyl)-1-[(2S)-oxetan-2-ylmethyl]-1H-benzimidazole-6-carboxylic Acid]
14 | 680 | 76 |  |  |  | COCCn1c(CN2CCN(c3cccc4c3OC(c3ccccc3)O4)CC2)nc2ccc(C(=O)O)cc21 (stereo not shown) [Example 23, 1-(2-methoxyethyl)-2-{[4-(2-phenyl-1,3-benzodioxol-4-yl)piperazin-1-yl]methyl}-1H-benzimidazole-6-carboxylic acid]
15 | 160 | 78 |  |  |  | CC1(c2ccc(Cl)cc2F)Oc2cccc(C3CCN(Cc4nc5ccc(C(=O)O)cc5n4CCN4CCOCC4)CC3)c2O1 (stereo not shown) [Example 44, 2-({4-[2-(4-chloro-2-fluorophenyl)-2-methyl-1,3-benzodioxol-4-yl]piperidin-1-yl}methyl)-1-[2-(morpholin-4-yl)ethyl]-1H-benzimidazole-6-carboxylic acid]
16 | > 20000 |  |  |  |  | COCCn1c(CN2CCN(c3cccc4c3OC(c3ccccc3)O4)CC2)nc2ccc(C(=O)O)cc21 (stereo not shown) [Example 22, 1-(2-methoxyethyl)-2-{[4-(2-phenyl-1,3-benzodioxol-4-yl)piperazin-1-yl]methyl}-1H-benzimidazole-6-carboxylic acid]
17 |  |  |  |  | 4.3 | C[C@]1(c2ccc(Cl)cc2F)Oc2cccc(C3CCN(Cc4nc5ccc(C(=O)O)cc5n4C[C@@H]4CCO4)CC3)c2O1 [7, free acid, 2-({4-[(2S)-2-(4-Chloro-2-fluorophenyl)-2-methyl-1,3-benzodioxol-4-yl]piperidin-1-yl}methyl)-1-[(2S)-oxetan-2-ylmethyl]-1H-benzimidazole-6-carboxylic Acid]
18 | > 20000 |  |  |  |  | COCCn1c(CN2CCC(c3cccc4c3OC(C)(c3ccccn3)O4)CC2)nc2ccc(C(=O)O)cc21 (stereo not shown) [Example 90, 1-(2-methoxyethyl)-2-({4-[2-methyl-2-(pyridin-2-yl)-1,3-benzodioxol-4-yl]piperidin-1-yl}methyl)-1H-benzimidazole-6-carboxylic acid]
19 | 460 | 90 |  |  |  | CC1(c2ccc(Cl)cc2F)Oc2cccc(C3CCN(Cc4nc5ccc(C(=O)O)cc5n4CCc4ncc[nH]4)CC3)c2O1 (stereo not shown) [Example 74, 2-({4-[2-(4-chloro-2-fluorophenyl)-2-methyl-1,3-benzodioxol-4-yl]piperidin-1-yl}methyl)-1-[2-(1H-imidazol-2-yl)ethyl]-1H-benzimidazole-6-carboxylic acid]
